Consider seven compounds from patent US7553864B2, “Compounds for the treatment of inflammatory disorders and microbial diseases” (Schering Corporation, priority 2005, dated 2009).

The subject of the assay is LpxC enzyme. Nature of the assay: LpxC enzyme assay (RapidFire high-throughput mass spectrometry). The class given is biochemical. An outline of the steps: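 0.2 nM enzyme with 1.0 μM UDP-3-O-(R-3-hydroxymyristoyl)-N-acetylglucosamine in 25 mM HEPES pH 7.3, 150 mM NaCl, 2.0 mM DTT, 0.01% BSA, 2% DMSO; 60 min at room temperature, quenched with HCl. Substrate and product quantified by RapidFire mass spectrometry; percent conversion gives percent inhibition versus DMSO control.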

Where [1] appears, read: concentration 0.10 (unit not given).
Where [2] appears, read: concentration 0.20 (unit not given).
The mark [3] stands for this setting: concentration 0.39 (unit not given).
The mark [4] stands for this setting: concentration 0.78 (unit not given).
The mark [5] stands for this setting: concentration 1.56 (unit not given).
[6] abbreviates: concentration 3.13 (unit not given).
Where [7] appears, read: concentration 6.25 (unit not given).
Setting [8] is: concentration 12.50 (unit not given).
The mark [9] stands for this setting: concentration 25 (unit not given).
The mark [10] stands for this setting: concentration 50 (unit not given).

As to `CN1CCN(c2ccc(NC(=O)[C@H](O)[C@@H](O)C(=O)N3CCCC3)cc2)CC1` [Compound 72], the “LpxC enzyme assay rating (% inhibition at indicated concentrations)” value under setting [1] is listed as “B (10-30% inhibition)”; the “LpxC enzyme assay rating (% inhibition at indicated concentrations)” value under setting [2] was “C (less than 10% inhibition)”; the “LpxC enzyme assay rating (% inhibition at indicated concentrations)” value under setting [3] is on record as “C (less than 10% inhibition)”; the “LpxC enzyme assay rating (% inhibition at indicated concentrations)” value under setting [4] was “C (less than 10% inhibition)”; the “LpxC enzyme assay rating (% inhibition at indicated concentrations)” value under setting [5] is reported as “C (less than 10% inhibition)”; the “LpxC enzyme assay rating (% inhibition at indicated concentrations)” value under setting [6] is on record as “C (less than 10% inhibition)”. The “LpxC enzyme assay rating (% inhibition at indicated concentrations)” value reads like this: under setting [7], “C (less than 10% inhibition)”; under setting [8], “C (less than 10% inhibition)”; under setting [9], “C (less than 10% inhibition)”; under setting [10], “B (10-30% inhibition)”.

Take `CN(C)CCOc1ccc(NC(=O)[C@H](O)[C@@H](O)C(=O)N2CCCC2)cc1` [Compound 73]: the “LpxC enzyme assay rating (% inhibition at indicated concentrations)” value by setting is: under setting [1], “C (less than 10% inhibition)”; under setting [2], “B (10-30% inhibition)”; under setting [3], “C (less than 10% inhibition)”; under setting [4], “B (10-30% inhibition)”; under setting [5], “C (less than 10% inhibition)”; under setting [6], “C (less than 10% inhibition)”. Besides, the “LpxC enzyme assay rating (% inhibition at indicated concentrations)” value is recorded as “C (less than 10% inhibition)” under setting [7], “C (less than 10% inhibition)” under setting [8], “C (less than 10% inhibition)” under setting [9] and “C (less than 10% inhibition)” under setting [10].

As to `CN(C)CCCOc1ccc(NC(=O)[C@H](O)[C@@H](O)C(=O)N2CCCC2)cc1` [Compound 74], the “LpxC enzyme assay rating (% inhibition at indicated concentrations)” value is reported as “B (10-30% inhibition)” under setting [1]; “C (less than 10% inhibition)” under setting [2]; “C (less than 10% inhibition)” under setting [3]; “C (less than 10% inhibition)” under setting [4]; “B (10-30% inhibition)” under setting [5]; “B (10-30% inhibition)” under setting [6]. Further, the “LpxC enzyme assay rating (% inhibition at indicated concentrations)” value runs as follows: under setting [7], “C (less than 10% inhibition)”; under setting [8], “C (less than 10% inhibition)”; under setting [9], “C (less than 10% inhibition)”; under setting [10], “C (less than 10% inhibition)”.

Turning to `O=C(Nc1ccc(-n2cccn2)cc1)[C@H](O)[C@@H](O)C(=O)N1CCCC1` [Compound 75], the “LpxC enzyme assay rating (% inhibition at indicated concentrations)” value is, setting by setting: under setting [1], “C (less than 10% inhibition)”; under setting [2], “C (less than 10% inhibition)”; under setting [3], “C (less than 10% inhibition)”; under setting [4], “B (10-30% inhibition)”; under setting [5], “C (less than 10% inhibition)”; under setting [6], “B (10-30% inhibition)”. For the same compound, the “LpxC enzyme assay rating (% inhibition at indicated concentrations)” value is “B (10-30% inhibition)” under setting [7], “C (less than 10% inhibition)” under setting [8], “C (less than 10% inhibition)” under setting [9] and “B (10-30% inhibition)” under setting [10].

For `O=C(Nc1ccc(-c2cc[nH]n2)cc1)[C@H](O)[C@@H](O)C(=O)N1CCCC1` [Compound 76], the “LpxC enzyme assay rating (% inhibition at indicated concentrations)” value under setting [1] is “C (less than 10% inhibition)”; the “LpxC enzyme assay rating (% inhibition at indicated concentrations)” value under setting [2] was “C (less than 10% inhibition)”; the “LpxC enzyme assay rating (% inhibition at indicated concentrations)” value under setting [3] was “C (less than 10% inhibition)”; the “LpxC enzyme assay rating (% inhibition at indicated concentrations)” value under setting [4] is “C (less than 10% inhibition)”; the “LpxC enzyme assay rating (% inhibition at indicated concentrations)” value under setting [5] is listed as “B (10-30% inhibition)”; the “LpxC enzyme assay rating (% inhibition at indicated concentrations)” value under setting [6] is on record as “C (less than 10% inhibition)”. Also, the “LpxC enzyme assay rating (% inhibition at indicated concentrations)” value was “B (10-30% inhibition)” under setting [7], “C (less than 10% inhibition)” under setting [8], “C (less than 10% inhibition)” under setting [9] and “C (less than 10% inhibition)” under setting [10].

Consider `C[C@H](O)[C@@H](NC(=O)[C@H](O)[C@@H](O)C(=O)N(C)C)C(=O)Nc1ccc(C#Cc2ccccc2)cc1` [Compound 77], for which the “LpxC enzyme assay rating (% inhibition at indicated concentrations)” value is, setting by setting: under setting [1], “C (less than 10% inhibition)”; under setting [2], “C (less than 10% inhibition)”; under setting [3], “C (less than 10% inhibition)”; under setting [4], “C (less than 10% inhibition)”; under setting [5], “C (less than 10% inhibition)”; under setting [6], “C (less than 10% inhibition)”. In addition, the “LpxC enzyme assay rating (% inhibition at indicated concentrations)” value reads like this: under setting [7], “C (less than 10% inhibition)”; under setting [8], “B (10-30% inhibition)”; under setting [9], “A (greater than 30% inhibition)”.

Turning to `C[C@@H](O)[C@H](NC(=O)[C@H](O)[C@@H](O)C(=O)N(C)C)C(=O)Nc1ccc(C#Cc2ccccc2)cc1` [Compound 78], the “LpxC enzyme assay rating (% inhibition at indicated concentrations)” value is, setting by setting: under setting [1], “C (less than 10% inhibition)”; under setting [2], “C (less than 10% inhibition)”; under setting [3], “B (10-30% inhibition)”; under setting [4], “C (less than 10% inhibition)”; under setting [5], “C (less than 10% inhibition)”; under setting [6], “B (10-30% inhibition)”. The “LpxC enzyme assay rating (% inhibition at indicated concentrations)” value is reported as “B (10-30% inhibition)” under setting [7], “B (10-30% inhibition)” under setting [8] and “A (greater than 30% inhibition)” under setting [9].
